From the supplement of paper PMC10307832 come the findings set out here.

Common to all, as to test: relative viability (nuclei count vs DMSO), 5 days (fraction); higher = more cells survive
Compound in the assay “Decitabine + Dasatinib”: Nc1ncn([C@H]2C[C@H](O)[C@@H](CO)O2)c(=O)n1 [Decitabine] + Cc1nc(Nc2ncc(C(=O)Nc3c(C)cccc3Cl)s2)cc(N2CCN(CCO)CC2)n1 [Dasatinib] (partner 0.075 µM)
The method, boiled down:
(§1)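 Each reported value is a median over duplicate plates. It expresses relative viability: treated-well nuclei count divided by vehicle-well nuclei count. Lung cancer cell lines in 1536-well plates were dosed by pin tool a day after seeding, alone with one drug or with a fixed anchor-drug dose plus five library-drug doses (not always all listed) in √10 steps, and nuclei were counted after 5 days.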

Compound in the assay “Decitabine + Vorinostat”: Nc1ncn([C@H]2C[C@H](O)[C@@H](CO)O2)c(=O)n1 [Decitabine] + O=C(CCCCCCC(=O)Nc1ccccc1)NO [Vorinostat] (partner 1 µM)
Summed up: as §1

Compound in the assay “Decitabine + Alpelisib”: Nc1ncn([C@H]2C[C@H](O)[C@@H](CO)O2)c(=O)n1 [Decitabine] + Cc1nc(NC(=O)N2CCC[C@H]2C(N)=O)sc1-c1ccnc(C(C)(C)C(F)(F)F)c1 [Alpelisib] (partner 2 µM)
The method, boiled down: as §1

Compound in assay [1]: O=C(C[C@H]1NCCC[C@@H]1O)Cn1cnc2cc(Br)c(Cl)cc2c1=O (racemic) [Halofuginone] + Nc1nc2[nH]cc(CCc3ccc(C(=O)N[C@@H](CCC(=O)O)C(=O)O)cc3)c2c(=O)[nH]1 [Pemetrexed] (partner 0.2 µM)
The method, boiled down: as §1

For UMC-11, the relative viability with Decitabine + Dasatinib (first compound 0.04 µM) amounted to 0.496; in the assay with Decitabine + Dasatinib (first compound 0.1265 µM), 0.442; with Decitabine + Dasatinib (first compound 0.4 µM) it was 0.293; in the assay with Decitabine + Dasatinib (first compound 1.265 µM) it was 0.335; with Decitabine + Dasatinib (first compound 4 µM), 0.327; in the assay with Decitabine + Vorinostat (first compound 0.04 µM) it was 0.269. The relative viability with Decitabine + Vorinostat (first compound 0.1265 µM) came to 0.263; with Decitabine + Vorinostat (first compound 0.4 µM), 0.236; with Decitabine + Vorinostat (first compound 1.265 µM) it was 0.19; with Decitabine + Vorinostat (first compound 4 µM) it was 0.193; with Decitabine + Alpelisib (first compound 0.04 µM) it was 0.848; in the assay with Decitabine + Alpelisib (first compound 0.1265 µM), 0.535. Besides, the relative viability in the assay with Decitabine + Alpelisib (first compound 0.4 µM) was determined as 0.481; in the assay with Decitabine + Alpelisib (first compound 1.265 µM), 0.309; with Decitabine + Alpelisib (first compound 4 µM), 0.281; in assay [1] (first compound 0.001 µM), 0.881; in assay [1] (first compound 0.003162 µM), 0.834; in assay [1] (first compound 0.01 µM), 0.727. For the same cell line, the relative viability in assay [1] (first compound 0.03162 µM) was 0.651; in assay [1] (first compound 0.1 µM) it was 0.443.
